Measured values published in patent US6495663B1, “Method and composition for enhancing transport across biological membranes” (The Board of Trustees of the Leland Stanford Junior …, priority 1997, dated 2002).
“Also recorded” adds a separate entry of the source. No end group written: not given here. *: point of attachment. FITC = O=C1OC2(c3ccc(O)cc3Oc3cc(O)ccc32)c2ccc(NC(=S)*)cc21; Ahx = NCCCCCC(=O)O

Assays:
[1] = molecular target: T1, RAF-1 in V7 immunocomplex (Homo sapiens, UniProt P04049); experiment: Anti-V7 immunoprecipitation from peptide-treated T-cells; type: cell-based
T1 construct: T-cells which had been isolated by standard methods; endogenous in cells; host or cells: T-cells isolated by standard methods
Description: The conjugate was added (final concentration ≈10 μM) to T-cells which had been isolated by standard methods, and was incubated at 37° C. for several hours to overnight. Cells were lysed using detergent (1% Triton X-100). DNA was removed, and the soluble (protein-containing) fraction was subjected to immunoprecipitation with an anti-V7 murine monoclonal antibody in combination with goat anti-mouse IgG. RAF-1 is a kinase that associates with, and is inactivated by association with, V7.

[2] = molecular target: T2, RAF-1 kinase (Homo sapiens, UniProt P04049); experiment: RAF-kinase activity in anti-RAF-1 precipitates of T cells; type: cell-based; conditions: anti-RAF-1 precipitates of exposed T cells
T2 construct: Anti-RAF-1 precipitates of T cells; endogenous in cells; host or cells: T cells
Excerpt: In a second study, the V7 peptide portion of the V7-poly-arginine conjugate was phosphorylated in vitro using protein kinase C.

[3] = molecular target: T3, complex consisting of RAF-1 and p21 Ras (Homo sapiens, UniProt P04049); experiment: Disruption of RAF-1/p21 Ras complex in peptide-treated T-cells; type: cell-based; conditions: same peptide treatment
T3 construct: T-cells which had been isolated by standard methods; endogenous in cells; host or cells: T-cells isolated by standard methods

[4] = test system: gamma-IFN secretion by murine T cell line (clone 11.3); experiment: Inhibition of gamma-IFN production by conjugates; type: cell-based
Description: 3. Gamma-IFN Assay. The amount of gamma interferon secreted by a murine T cell line (clone 11.3) was measured by incubating 10^5 T cells with varying amounts of antigen (peptide consisting of residues 110-121 of sperm whale myoglobin) and histocompatible spleen cells from DBA/2 mice (H-2d, 5×10^5), which act as antigen-presenting cells (APCs), in 96 well plates. After incubation for 24 hours at 37° C., 100 μL of the supernatants were transferred to microtiter plates coated with commercially available anti-gamma-IFN monoclonal antibodies (Mab) (Pharmingen, San Diego, Calif.). After incubation for an hour at room temperature, the plates were washed with PBS containing 1% fetal calf serum and 0.1% Tween®20, after which a second, biotinylated gamma-IFN Mab was added. After a second hour of incubation, the plates were washed as before, and europium (Eu)-streptavidin (Delphia-Pharmacia) was added. Again, after an hour of incubation, an acidic buffer was added to release Eu, which was measured by time-resolved fluorometry on a Delphia plate reader.
The ability of PNA-polyarginine conjugates to inhibit secretion of gamma-IFN was assayed by adding various concentrations of the above gamma-IFN conjugates with suboptimal doses of peptide antigen (0.5 μM), to a mixture of clone 11.3 T cells and histocompatible spleen cells.
After 24 hours, aliquots of the cultured supernatants were taken, and the amount of gamma-IFN was measured using the fluorescent binding assay described in section 3 above.

[5] = cited from earlier work
[6] = test system: Jurkat cells; experiment: Fluorescence assay of cellular uptake of peptide-fluorescein conjugates (FACS); type: cell-based, human; conditions: FIGS. 1A-1C
[7] = Biological half-life / proteolysis by serum enzymes in uptake assay; type: in vitro ADME; conditions: serum-containing assay
[8] = test system: cells; experiment: Length range studies: uptake of longer polyarginine conjugates (FACS, mean fluorescence of live cells); type: cell-based
Description: To examine the effect of substantially longer polymers, a mixture of L-arginine polymers with an average molecular weight of 12,000 daltons (≈100 amino acids) was also tested (Example 5). However, to avoid precipitation problems, the level of serum in the assay had to be reduced for testing conjugates with the ≈12,000 MW polymer material. Cell uptake was analyzed by FACS as above, and the mean fluorescence of live cells was measured. Cytotoxicity of each conjugate was also measured.
Suspension cells ([…]) were incubated for varying times, at 37° C., 23° C., or 4° C., with a range of concentrations of peptides or conjugates in PBS pH 7.2 containing 2% fetal calf serum (PBS/FCS) in 96 well plates. […] The pelleted cells were resuspended in PBS containing 2% FCS and 0.1% propidium iodide and analyzed on a FACScan (Becton Dickenson, Mountain View, Calif.). […]
The following homopolymers of polyarginine were tested by the fluorescence assay in Example 2, with incubation at 37° C. for 15 minutes prior to cell pelleting: r9, R9, R15, R20, R25, and R30. […] The cells were analyzed by FACS, and the mean fluorescence of the live cells was measured. Cytotoxicity of each conjugate was also measured by calculating the percentage of cells that stained with propidium iodide, which is characteristic of cell death. […]

[9] = test system: Jurkat cells; experiment: Confocal cell microscopy of conjugate uptake; type: cell-based, human; conditions: 6.25 μM conjugate, 37° C., 10 minutes
Description: Cells incubated with fluorescent polyarginine peptides were prepared as described above for binding assays and analyzed at the Cell Sciences Imaging Facility (Stanford University, Stanford, Calif.) using a scanning, single beam laser confocal microscope, with an excitation wavelength of 488 nm (argon-ion laser) and an emission band-width of 510-550 using a band-pass filter. Conjugates (6.25 μM) containing tat(49-57), R7, or r7 coupled to fluorescein were incubated with Jurkat cells for 37° C. for 10 minutes. FIGS. 2A-2F show results for emitted fluorescence (FIGS. 2A-2C) and transmitted light (2D—2F) for tat(49-57) (FIGS. 2A and […]), R7 (FIGS. 2B and 2E), and r7 (FIGS. 2C and 2F).

[10] = test system: Jurkat cells; experiment: Kinetics of uptake (Michaelis-Menten, Lineweaver-Burk); type: cell-based, human; conditions: for Km / VMAX: fluorescent conjugates, Jurkat cells, 0.5, 1, 2 and 4 minutes at 4° C., Lineweaver-Burk
Description: Peptides were incubated with cells for 0.5, 1, 2, and 4 minutes at 4° C. in triplicate, in 50 μL of PBS/FCS in 96-well plates. At the end of incubation, the reaction was quenched by diluting the samples in 5 mL of PBS/FCS, centrifuging and washing once with PBS/FCS, trypsin/EDTA, and finally again with PBS/FCS, and taking up the pellets in PBS/FCS containing propidium iodide for analysis on a FACScan. FACS data were fitted to the Line-weaver-Burk equation for Michaelis-Menten kinetics.

[11] = test system: E. coli strain HB101; experiment: Transport into bacterial cells (gram-negative); type: cell-based; conditions: 30 minutes at 37° C., 3 to 50 μM conjugate
Description: Gram-negative bacteria (E. coli strain HB101) and gram-positive bacteria (Strep. bovis) were grown in appropriate media in logarithmic phase. Cell cultures (4×10^8 per mL) were incubated for 30 minutes at 37° C. with varying concentrations of fluorescent conjugates containing linear polymers of L-arginine (R4 through R9), D-arginine (r4 through r9), or L-lysine (K9) at conjugate concentrations of 3 to 50 μM. The cells were washed and taken up in PBS-containing propidium iodide (to distinguish dead cells) and analyzed by FACS and fluorescent microscopy. Results are shown in FIGS. 5A-5C as discussed above.

[12] = test system: albumin-specific CTLs; experiment: Dendritic cells exposed to conjugate and injected into mice: CTL response in blood; type: in vivo; conditions: dendritic cells exposed to antigen, then injected into mice
Description: In another experiment, histocompatible dendritic cells (a specific type of APC) were exposed to albumin-R7 conjugates and were then injected into mice. […] Control mice were given dendritic cells that had been exposed to unmodified albumin.

[13] = test system: cytotoxic T-lymphocytes; experiment: Transport of large protein antigen into APCs: stimulation of CTLs; type: cell-based; conditions: 10 μM on B-cells (APCs)
Description: The molar ratio of peptide conjugated to ovalbumin was quantified by amino acid analysis. The conjugate product was designated OV-R7. The conjugate was added (final concentration 10 μM) to B-cells, also referred to as antigen-presenting cells (APCs), which were isolated according to standard methods. The APCs were incubated with OV-R7, and then were added to a preparation of cytotoxic T-lymphocytes isolated by standard methods.

For “V7 peptide: V7 cytoplasmic tail sequence KLSTLRSNT with 7 arginine residues attached to its C-terminus (KLSTLRSNTRRRRRRR)”, the “binding to RAF-1” value [1] was “can bind to RAF-1”, the “RAF-1 co-precipitation with V7” value ([1]; ≈10 μM on T-cells, 37° C., several hours to overnight) was “RAF-1 protein was eliminated from the V7 immuno-complex; also recorded: RAF-1 protein was eliminated from the V7 immunocomplex” and the “inhibition of RAF-kinase activity” value [2] was “not”. For the same molecule, the “disruption of complex of RAF-1 and p21 Ras” value [3] was “did not disrupt; also recorded: unable to disrupt”.

In the case of “NH2-rrrrrrr-AACGCTACAC-COOH (PNA, D-arginine heptamer conjugate, chemistry not fully specified) [sense PNA-r7]”, the “inhibition of gamma-IFN secretion” value ([4]; 24 hours, peptide antigen 0.5 μM, equivalent molar amounts) is reported as “no inhibition”.

For `CC(=O)O[C@@]12CO[C@@H]1C[C@H](O)[C@@]1(C)C(=O)[C@H](O)C3=C(C)[C@@H](OC(=O)[C@H](O)[C@@H](NC(=O)OC(C)(C)C)c4ccccc4)C[C@@](O)([C@@H](OC(=O)c4ccccc4)[C@H]21)C3(C)C` [taxotere], the water solubility [5] is listed as 6 to 7 µg/mL.

With “K9: nonamer of L-Lys residues, fluorescein conjugate ({FITC-Ahx}-KKKKKKKKK; also: fluorescein conjugate, place not given here)” the “cellular uptake (transport of fluorescein into cells)” value [6] was “very little uptake” and the “cellular uptake (transport of fluorescein into cells)” value ([6]; listed as poly-Lys nonamer) was “ineffective as a transporter”.

For H3N-rrrrrrrrr-COO^-, the proteolytic degradation [7] was “did not show evidence of proteolytic degradation”, the “rate of entering cells” value ([8]; FIG. 3 data) was “higher rates than polymers containing 15 or more contiguous arginines” and the “uptake versus longer polymers” value ([8]; higher concentrations (>3 μM), 37° C., 15 minutes) was “significantly better than for the longer polymers”. The “fluorescence of cytosol (confocal micrographs)” value [9] was “brightly fluorescent”, the Km [10] was 7.21 µM and the VMAX [10] was 0.39 µM/s. For the same molecule, the Km ([10]; listed as nonamer of D-arginine) was 7 µM, the “apparent affinity (Km) relative to tat peptide” value ([10]; greater apparent affinity than tat(49-57)) was “approximately 100 fold” and the “uptake levels by E. coli HB 101 cells” value [11] was “much higher uptake levels”.

With “NH2-rrrrrrr-GTGTAGCGTT-COOH (all peptide nucleic acid (PNA); D-arginine heptamer attached at the N-terminus, further chemistry not fully specified) [antisense PNA-r7 conjugate]” the “reduction in IFN secretion” value ([4]; 24 hours, peptide antigen 0.5 μM) was “over 70%” and the “conjugate level effective to block γ-IFN secretion” value ([4]; FIG. 7) was “above 10 μM”.

For “Arg-Lys-Lys-Arg-Arg-Gln-Arg-Arg-Arg (RKKRRQRRR; also: fluorescein conjugate, place not given here) [tat 49-57, polypeptide comprising HIV tat residues 49-57, fluorescein conjugate, reference compound]”, the “fluorescence of cytosol (confocal micrographs)” value [9] was “only weak staining”, the Km [10] was 722 µM and the VMAX [10] was 0.38 µM/s.

B1: unmodified ovalbumin: ovalbumin (45 kDa) protein antigen, not conjugated (protein, UniProt P01012 2-386, looked up)
Ovalbumin: GSIGAASMEFCFDVFKELKVHHANENIFYCPIAIMSALAMVYLGAKDSTRTQINKVVRFDKLPGFGDSIEAQCGTSVNVHSSLRDILNQITKPNDVYSFSLASRLYAEERYPILPEYLQCVKELYRGGLEPINFQTAADQARELINSWVESQTNGIIRNVLQPSSVDSQTAMVLVNAIVFKGLWEKAFKDEDTQAMPFRVTEQESKPVQMMYQIGLFRVASMASEKMKILELPFASGTMSMLVLLPDEVSGLEQLESIINFEKLTEWTSSNVMEERKIKVYLPRMKMEEKYNLTSVLMAMGITDVFSSSANLSGISSAESLKISQAVHAAHAEINEAGREVVGSAEAGVDAASVSEEFRADHPFLFCIKHIATNAVLFFGRCVSP
With B1 the “albumin-specific CTL response in blood of mice” value [12] was “did not exhibit the albumin-specific CTL response” and the “stimulation of CTLs by APCs incubated with antigen” value [13] was “failed to stimulate the CTLs”.
